From patent US20230000870A1, “METHODS OF TREATING CANCER IN BIOMARKER-IDENTIFIED PATIENTS WITH INHIBITORS OF CYCLIN-DEPENDENT KINASE 7 (CDK7)” (Syros Pharmaceuticals, Inc., priority 2019, published 2023)

Assays:
CDK9/Cyclin T1 complex = CDK9/Cyclin T1 complex (Homo sapiens, UniProt P50750); assay: CDK9 kinase inhibition assay (Caliper/LabChip EZ Reader); assay type: biochemical; conditions: CDK9/Cyclin T1 8 nM, ATP 2 mM, 15 min at 27° C.
Protocol: (§1) Compounds of the invention were assayed for inhibition of CDK7, CDK9, CDK12, and CDK2 activity at Biortus Biosciences (Jiangyin, Jiangsu Province, P.R. of China) using kinase assays for each CDK developed with a Caliper/LabChip EZ Reader (Perkin Elmer, Waltham, Mass.).
(§2) Furthermore, the CDK9 inhibition assay used CDK9/Cyclin T1 complex (8 nM) and “5-FAM-CDK9tide” peptide substrate (2 μM, synthesized fluorophore-labeled peptide with the following sequence: 5-FAM-GSRTPMY-NH2 where 5-FAM is defined above and NH2 signifies a C-terminal amide) with 10 mM MgCl2 in the buffer composition listed above. The CDK12 inhibition assay used CDK12 (aa686-1082)/Cyclin K complex (50 nM) and “5-FAM-CDK9tide” (2 μM) as defined above, with 2 mM MgCl2 in the buffer composition above. Additionally, the CDK2 inhibition assay used CDK2/Cyclin E1 complex (0.5 nM) and “5-FAM-CDK7tide” (2 μM) as defined above, with 2 mM MgCl2 in the buffer composition listed above.
(§3) The incubation period at 27° C. for each CDK inhibition assay was chosen such that the fraction of phosphorylated peptide product produced in each assay, relative to the total peptide concentration, was approximately 20% (±5%) for the uninhibited kinase (35 min. for CDK7, 35 min. for CDK2, 3 hr. for CDK12, 15 min. for CDK9).

A673 cells = assay: Inhibition of proliferation of A673 cells (CyQUANT, 72 hour); assay type: cell-based, human; conditions: read-out: Inhibition of Proliferation of A673 Cells (calculated IC50)
Protocol: A673 Cells: A673 cells are a cell line derived from human muscle Ewing's sarcoma. Representative compounds of the invention were tested at different concentrations (from 4 μM to […]; 0.5 log serial dilutions) for their ability to inhibit the proliferation of A673 cells. Known CDK inhibitors dinaciclib or N-((1S,3R)-3-((5-chloro-4-(1H-indol-3-yl)pyrimidin-2-yl)amino)cyclohexyl)-5-((E)-4-(dimethylamino)but-2-enamido)picolinamide and triptolide were used as positive controls. Cells were grown in Dulbecco's Modified Eagle's Medium, +10% FBS+1 mM Sodium Pyruvate. The cells were cultured at 37° C. in a humidified chamber in the presence of 5% CO2. Proliferation assays were conducted over a 72 hour time period. CyQUANT® (Life Technologies, Chicago, Ill. USA) was used to assess the anti-proliferative effects of the compounds following manufacturer's directions and utilizing the reagents supplied with the CyQUANT® kit.

[1] = molecular target: T1, CDK12 (aa686-1082)/Cyclin K complex (Homo sapiens, UniProt Q9NYV4); assay: CDK12 kinase inhibition assay (Caliper/LabChip EZ Reader); assay type: biochemical; conditions: CDK12 (aa686-1082)/Cyclin K 50 nM, ATP 2 mM, 3 hr at 27° C.
T1 construct: CDK12 (aa686-1082)/Cyclin K complex
T1 sequence (Q9NYV4 686-1082): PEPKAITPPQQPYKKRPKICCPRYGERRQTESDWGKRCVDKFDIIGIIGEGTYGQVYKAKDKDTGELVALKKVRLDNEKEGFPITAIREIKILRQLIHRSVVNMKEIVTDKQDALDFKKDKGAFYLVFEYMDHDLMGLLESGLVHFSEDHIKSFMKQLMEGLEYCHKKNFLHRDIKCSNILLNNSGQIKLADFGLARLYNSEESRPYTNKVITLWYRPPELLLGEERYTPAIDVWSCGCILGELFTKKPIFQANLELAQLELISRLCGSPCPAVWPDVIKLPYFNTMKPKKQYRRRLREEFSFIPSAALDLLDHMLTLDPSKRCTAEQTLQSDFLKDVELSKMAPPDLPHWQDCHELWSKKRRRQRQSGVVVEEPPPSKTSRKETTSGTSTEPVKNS
T1 sequence (O75909 whole entry partner, the tested form may be a part): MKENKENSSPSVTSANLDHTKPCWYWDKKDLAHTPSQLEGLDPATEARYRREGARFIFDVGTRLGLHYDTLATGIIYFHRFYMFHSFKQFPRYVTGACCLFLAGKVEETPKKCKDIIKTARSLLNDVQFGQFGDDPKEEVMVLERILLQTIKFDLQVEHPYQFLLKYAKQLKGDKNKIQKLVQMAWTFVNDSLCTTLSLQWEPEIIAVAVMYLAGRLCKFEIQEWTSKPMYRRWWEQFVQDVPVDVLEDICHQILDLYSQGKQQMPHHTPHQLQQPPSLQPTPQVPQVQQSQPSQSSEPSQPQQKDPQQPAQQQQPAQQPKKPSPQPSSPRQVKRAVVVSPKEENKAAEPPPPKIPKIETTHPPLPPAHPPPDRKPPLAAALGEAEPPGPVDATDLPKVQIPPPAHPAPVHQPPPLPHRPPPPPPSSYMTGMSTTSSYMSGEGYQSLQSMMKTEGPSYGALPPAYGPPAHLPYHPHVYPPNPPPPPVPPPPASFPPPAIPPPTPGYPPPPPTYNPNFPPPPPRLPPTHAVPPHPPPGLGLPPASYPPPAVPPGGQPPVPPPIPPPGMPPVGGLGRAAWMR
Protocol: as §1, §2, §3

CDK2/Cyclin E1 complex = CDK2/Cyclin E1 complex (Homo sapiens, UniProt P24941); assay: CDK2 kinase inhibition assay (Caliper/LabChip EZ Reader); assay type: biochemical; conditions: CDK2/Cyclin E1 0.5 nM, ATP 2 mM, 35 min at 27° C.
Protocol: as §1, §2, §3

[2] = molecular target: CDK7/Cyclin H/MAT1 complex (Homo sapiens, UniProt P50613); assay: CDK7 kinase inhibition assay (Caliper/LabChip EZ Reader); assay type: biochemical; conditions: CDK7/Cyclin H/MAT1 6 nM, ATP 2 mM, 35 min at 27° C.
Chain of CDK7/Cyclin H/MAT1 complex (P50613 whole entry): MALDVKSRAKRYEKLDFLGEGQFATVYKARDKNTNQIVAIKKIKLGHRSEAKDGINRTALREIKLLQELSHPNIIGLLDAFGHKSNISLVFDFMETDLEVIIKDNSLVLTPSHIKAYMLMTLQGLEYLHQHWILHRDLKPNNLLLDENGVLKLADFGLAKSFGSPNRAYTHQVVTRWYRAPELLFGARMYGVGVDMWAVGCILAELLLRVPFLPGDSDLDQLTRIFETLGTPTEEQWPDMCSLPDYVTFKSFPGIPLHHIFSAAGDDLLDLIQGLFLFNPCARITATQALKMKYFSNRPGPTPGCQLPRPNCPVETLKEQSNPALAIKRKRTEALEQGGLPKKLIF
Chain of CDK7/Cyclin H/MAT1 complex (P51946 whole entry partner): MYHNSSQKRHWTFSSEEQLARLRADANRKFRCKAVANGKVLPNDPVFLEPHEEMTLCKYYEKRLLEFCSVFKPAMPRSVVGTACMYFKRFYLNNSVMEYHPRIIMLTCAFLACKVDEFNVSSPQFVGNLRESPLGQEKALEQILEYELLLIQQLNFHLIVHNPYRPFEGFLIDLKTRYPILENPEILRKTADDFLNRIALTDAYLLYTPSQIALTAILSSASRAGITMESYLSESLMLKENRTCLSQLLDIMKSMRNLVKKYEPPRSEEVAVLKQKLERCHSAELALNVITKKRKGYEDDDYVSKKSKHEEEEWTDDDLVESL
Chain of CDK7/Cyclin H/MAT1 complex (P51948 whole entry partner): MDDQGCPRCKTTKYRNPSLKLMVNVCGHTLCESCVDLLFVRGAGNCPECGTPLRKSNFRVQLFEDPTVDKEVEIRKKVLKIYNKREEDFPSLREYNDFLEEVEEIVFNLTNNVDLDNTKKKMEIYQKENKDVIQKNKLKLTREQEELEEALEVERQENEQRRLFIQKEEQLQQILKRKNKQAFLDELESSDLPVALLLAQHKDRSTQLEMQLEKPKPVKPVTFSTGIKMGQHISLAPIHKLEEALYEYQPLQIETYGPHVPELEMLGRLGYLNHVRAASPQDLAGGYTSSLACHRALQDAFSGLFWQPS
Protocol: as §1, §2, §3

Chain of CDK9/Cyclin T1 complex (P50750 whole entry): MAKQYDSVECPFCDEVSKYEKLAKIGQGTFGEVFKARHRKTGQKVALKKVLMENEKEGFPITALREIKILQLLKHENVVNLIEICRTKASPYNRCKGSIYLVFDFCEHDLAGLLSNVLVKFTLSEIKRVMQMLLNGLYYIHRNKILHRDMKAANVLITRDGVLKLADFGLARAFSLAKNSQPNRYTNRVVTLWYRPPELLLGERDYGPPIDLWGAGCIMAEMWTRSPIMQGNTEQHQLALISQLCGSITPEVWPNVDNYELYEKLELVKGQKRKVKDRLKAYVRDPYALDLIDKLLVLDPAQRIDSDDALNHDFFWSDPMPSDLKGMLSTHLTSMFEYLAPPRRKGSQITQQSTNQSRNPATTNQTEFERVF
Chain of CDK9/Cyclin T1 complex (O60563 whole entry partner): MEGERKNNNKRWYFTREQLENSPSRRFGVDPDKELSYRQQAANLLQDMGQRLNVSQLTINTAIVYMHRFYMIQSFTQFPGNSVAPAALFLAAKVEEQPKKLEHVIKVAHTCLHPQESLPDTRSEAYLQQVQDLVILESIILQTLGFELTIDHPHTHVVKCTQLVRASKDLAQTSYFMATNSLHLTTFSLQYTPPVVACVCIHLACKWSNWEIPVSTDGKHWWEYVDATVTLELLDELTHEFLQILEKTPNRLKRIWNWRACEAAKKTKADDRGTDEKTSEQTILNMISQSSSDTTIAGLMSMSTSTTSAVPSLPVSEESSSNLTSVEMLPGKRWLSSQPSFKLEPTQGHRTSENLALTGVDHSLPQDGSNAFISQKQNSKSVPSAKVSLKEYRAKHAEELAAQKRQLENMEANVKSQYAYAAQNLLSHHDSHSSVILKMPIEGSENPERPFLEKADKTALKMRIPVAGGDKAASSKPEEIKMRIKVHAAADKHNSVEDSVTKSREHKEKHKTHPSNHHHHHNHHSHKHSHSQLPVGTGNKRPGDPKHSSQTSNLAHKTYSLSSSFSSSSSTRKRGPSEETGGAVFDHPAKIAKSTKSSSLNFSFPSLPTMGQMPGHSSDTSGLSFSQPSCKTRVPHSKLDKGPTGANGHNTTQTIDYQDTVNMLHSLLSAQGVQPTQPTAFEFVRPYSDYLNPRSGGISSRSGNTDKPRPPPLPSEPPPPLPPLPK

Compound	IC50 (CDK9/Cyclin T1 complex) [nM]	IC50 (A673 cells) [nM]	IC50 [1] [nM]	IC50 (CDK2/Cyclin E1 complex) [nM]	IC50 [2] [nM]
Cc1cnc(NC2CCCNC2)nc1-c1c[nH]c2ccccc12 (stereo not drawn) [Compound 119]	200 to 5000	20 to 200	200 to 5000	≥ 5000	20 to 200
FC(F)(F)c1cnc(NC2CCCNC2)nc1-c1c[nH]c2ccc(-c3cn[nH]c3)cc12 (stereo not drawn) [Compound 177]	≥ 5000	200 to 5000	200 to 5000	≥ 5000	20 to 200
Fc1cccc2c(-c3nc(N[C@H]4CCCNC4)ncc3C(F)(F)F)n[nH]c12 [Compound 156]	200 to 5000	< 20	200 to 5000	200 to 5000	< 20
CCC1CCC(Nc2ncc(C(F)(F)F)c(-c3c[nH]c4ccccc34)n2)CN1 (stereo not drawn) [Compound 211]	200 to 5000	20 to 200	200 to 5000	200 to 5000	20 to 200
N#Cc1cc2[nH]cc(-c3nc(NC4CCCNC4)ncc3C(F)(F)F)c2cc1F (stereo not drawn) [Compound 197]	200 to 5000	< 20	200 to 5000	200 to 5000	< 20
CCC1CCC(Nc2ncc(C(F)(F)F)c(-c3c[nH]c4ccccc34)n2)CN1 (stereo not drawn) [Compound 217]	200 to 5000	20 to 200	200 to 5000	200 to 5000	< 20
Clc1cnc(N[C@H]2CN3CCC2CC3)nc1-c1c[nH]c2ccccc12 [Compound 134]	≥ 5000	200 to 5000	≥ 5000	≥ 5000	≥ 5000
Clc1cnc(NC2CNCCC2c2ccccc2)nc1-c1c[nH]c2ccccc12 (stereo not drawn) [Compound 116]	≥ 5000	200 to 5000	≥ 5000	≥ 5000	≥ 5000
CC(=O)c1cccc2c(-c3nc(NC4CCCNC4)ncc3Cl)c[nH]c12 (stereo not drawn) [Compound 142]	200 to 5000	< 20	200 to 5000	200 to 5000	< 20
CC1CNCC(Nc2ncc(Cl)c(-c3c[nH]c4ccccc34)n2)C1 (stereo not drawn) [Compound 182]	200 to 5000	20 to 200	200 to 5000	≥ 5000	20 to 200
FC(F)(F)c1cnc(N[C@H]2CCCNC2)nc1-c1c[nH]c2cc(-c3ccncc3)ccc12 [Compound 224]	200 to 5000	20 to 200	200 to 5000	200 to 5000	< 20
Cn1cc(-c2ccc3c(-c4nc(NC5CCCNC5)ncc4C(F)(F)F)c[nH]c3c2)cc1C#N (stereo not drawn) [Compound 225]	200 to 5000	20 to 200	200 to 5000	200 to 5000	< 20
CCOP(=O)(OCC)c1cccc2c(-c3nc(NC4CCCNC4)ncc3C(F)(F)F)c[nH]c12 (stereo not drawn) [Compound 168]	≥ 5000	200 to 5000	≥ 5000	≥ 5000	200 to 5000
OC1CCC(c2cccc3c(-c4nc(NC5CCCNC5)ncc4C(F)(F)F)c[nH]c23)CC1 (stereo not drawn) [Compound 207]	200 to 5000	< 20	200 to 5000	200 to 5000	< 20
N#Cc1cn(-c2ccc3c(-c4nc(NC5CCCNC5)ncc4C(F)(F)F)c[nH]c3c2)cn1 (stereo not drawn) [Compound 249]	≥ 5000	20 to 200	200 to 5000	≥ 5000	< 20
OC1CNCC(Nc2ncc(C(F)(F)F)c(-c3c[nH]c4ccccc34)n2)C1 (stereo not drawn) [Compound 203]	200 to 5000	< 20	200 to 5000	200 to 5000	< 20
CC(C)C1CCC(Nc2ncc(C(F)(F)F)c(-c3c[nH]c4ccccc34)n2)CN1 (stereo not drawn) [Compound 260]	≥ 5000	200 to 5000	200 to 5000	≥ 5000	200 to 5000
N#Cc1ccc2c(-c3nc(NC4CCCNC4)ncc3C(F)(F)F)c[nH]c2c1C#N (stereo not drawn) [Compound 258]	200 to 5000	20 to 200	200 to 5000	200 to 5000	< 20

Compound	IC50 (CDK9/Cyclin T1 complex) [nM]	IC50 (A673 cells) [nM]	IC50 [1] [nM]	IC50 (CDK2/Cyclin E1 complex) [nM]	IC50 [2] [nM]
Cc1nn(C)cc1-c1ccc2c(-c3nc(N[C@H]4CCCNC4)ncc3C(F)(F)F)c[nH]c2c1 [Compound 226]	200 to 5000	< 20	200 to 5000	200 to 5000	< 20
CCc1cnc(NC2CCCNC2)nc1-c1c[nH]c2ccccc12 (stereo not drawn) [Compound 105]	≥ 5000	20 to 200	200 to 5000	≥ 5000	20 to 200
Clc1cnc(NC2CCCNC2)nc1-c1c[nH]c2ccccc12 (stereo not drawn) [Compound 100]	200 to 5000	< 20	200 to 5000	200 to 5000	< 20
FC(F)(F)c1cnc(NC2CCCNC2)nc1-c1c[nH]c2cc(-c3cn[nH]c3)ccc12 (stereo not drawn) [Compound 188]	200 to 5000	20 to 200	200 to 5000	200 to 5000	< 20
CC(O)c1cnc(NC2CCCNC2)nc1-c1c[nH]c2ccccc12 (stereo not drawn) [Compound 239]	≥ 5000	200 to 5000	≥ 5000	≥ 5000	200 to 5000
Cc1cccc2c(-c3nc(NC4CCCNC4)ncc3F)c[nH]c12 (stereo not drawn) [Compound 138]	200 to 5000	200 to 5000	200 to 5000	200 to 5000	20 to 200
FC1CCNCC1Nc1ncc(Cl)c(-c2c[nH]c3ccccc23)n1 (stereo not drawn) [Compound 121]	200 to 5000	20 to 200	200 to 5000	200 to 5000	20 to 200
Cc1ccc2[nH]cc(-c3nc(NC4CCCNC4)ncc3Cl)c2c1 (stereo not drawn) [Compound 108]	200 to 5000	200 to 5000	200 to 5000	200 to 5000	20 to 200
CC(C)n1cc(-c2nc(NC3CCCNC3)ncc2Cl)c2ccccc21 (stereo not drawn) [Compound 127]	200 to 5000	200 to 5000	≥ 5000	200 to 5000	200 to 5000
CC(C)c1cnc(N[C@H]2CCCNC2)nc1-c1n[nH]c2nc(C#N)ccc12 [Compound 276]	≥ 5000	200 to 5000	≥ 5000	≥ 5000	20 to 200
FC1(F)CNC[C@@H](Nc2ncc(C(F)(F)F)c(-c3c[nH]c4ccccc34)n2)C1 [Compound 236]	200 to 5000	20 to 200	200 to 5000	200 to 5000	< 20
FC(F)(F)c1cnc(NC2CCCNC2)nc1-c1c[nH]c2ccccc12 (stereo not drawn) [Compound 102]	20 to 200	< 20	20 to 200	200 to 5000	< 20
FC(F)(F)c1cnc(NC2CCCNC2)nc1-c1c[nH]c2cc(N3CCCC3)ccc12 (stereo not drawn) [Compound 213]	≥ 5000	20 to 200	200 to 5000	≥ 5000	20 to 200
FC(F)(F)c1cnc(NC2CCCNC2)nc1-c1c[nH]c2cc(-c3cccnc3)ccc12 (stereo not drawn) [Compound 223]	200 to 5000	20 to 200	200 to 5000	200 to 5000	< 20
O=C(O)c1cccc2c(-c3nc(NC4CCCNC4)ncc3Cl)c[nH]c12 (stereo not drawn) [Compound 154]	200 to 5000	200 to 5000	200 to 5000	≥ 5000	20 to 200
CCc1cnc(N[C@H]2CCCNC2)nc1-c1n[nH]c2c(F)cccc12 [Compound 143]	200 to 5000	< 20	200 to 5000	200 to 5000	< 20
Cn1cc(-c2ccc3[nH]cc(-c4nc(NC5CCCNC5)ncc4C(F)(F)F)c3c2)cn1 (stereo not drawn) [Compound 178]	≥ 5000	200 to 5000	200 to 5000	≥ 5000	20 to 200
Clc1cnc(NC2CCCNC2)nc1-c1c[nH]c2ccccc12 (stereo not drawn) [Compound 101]	200 to 5000	20 to 200	200 to 5000	200 to 5000	200 to 5000
